# Measured values reported in patent US5387516A, “Heat stable debranching enzyme from a Bacillus microorganism” (priority 1992, dated 1995).
# Like-named read-outs stand apart in the source and are kept apart here.
# Tests used:
# Format in all cases: biochemical
# [1] = test system: DB-250 (Amano Pharmaceutical Co., Ltd.), Enzyme B, debranching enzyme from Bacillus sectorramus
# Description: (§1) To 0.5 ml of a 1% pullulan solution in a 100 mM McIlvaine's buffer solution (pH=5.0) was added 0.5 ml of an enzyme solution, and the system was allowed to react at 50° C. for 30 minutes. The reducing power thus produced was quantitatively determined through a 3,5-dinitrosalicylic acid reaction (the DNS method; cf. Borel et al., Helv. Chim. Acta., 35, 115 (1952)). The activity producing reducing power corresponding to 1 μmol of maltotriose for 1 minute was taken as one unit.
# [2] = test system: Promozyme (Novo Nordisk A/S), Enzyme A, debranching enzyme from Bacillus acidopullulyticus
# Description: as §1
# [3] = test system: debranching enzyme (α-1,6-glucosidase) of the invention from Bacillus sp. APC-9603
# Description: as §1
# [4] = Table 5, conditions not restated
# [5] = Table 5, inhibitor 1 mM, 50 mM acetic acid buffer pH 5.0, 40° C., 30 minutes
# [6] = inhibitor at final concentration 1 mM, 50 mM acetic acid buffer pH 5.0, 40° C., 30 minutes, no inhibitor = 100
Compound,"Influence of Inhibitor (residual activity), Enzyme B [1, 4] [%]","Influence of Inhibitor (residual activity), Enzyme A [2, 4] [%]","Influence of Inhibitor (residual activity), Enzyme of Invention [3, 5] [%]","Residual Activity [3, 6] [%]",Inhibition (in words) ([3]; pH 5),"Inhibition (in words), Enzyme B [1]","Inhibition (in words), Enzyme A [2]","Inhibition (in words) ([3]; inhibitor 1 mM, pH 5.0, 40° C., 30 minutes)","Influence of Inhibitor (residual activity), Enzyme B [1] [%]","Influence of Inhibitor (residual activity), Enzyme A [2] [%]","Influence of Inhibitor (residual activity), Enzyme of Invention ([3]; pH 5) [%]",Residual Activity ([3]; pH 5) [%]
"CCN1C(=O)C=CC1=O [N-EMI, N-ethylmaleimide]",66,69,104,104,Non-inhibited,,,,,,,
"O=C(O)c1cc[c]([Hg][OH])cc1 [p-CMB, p-mercuri-benzoic acid]",27,14,81,81,,inhibited by p-CMB to a large extent,inhibited by p-CMB to a large extent,Slightly inhibited,,,,
"O=C(O)CI [MIA, monoiodoacetic acid]",,,,,Non-inhibited,,,,67,68,105,105
O=C(O)CN(CCN(CC(=O)O)CC(=O)O)CC(=O)O [EDTA],,,,,Slightly inhibited,,,,93,129,90,90
